# Reference: patent publication US20250290916A1 (Antibody Analytics Limited, priority 2022, published 2025)
# “Also recorded” adds a separate entry of the source.
# Experiments:
# HEK293 cells = assay: Cytotoxicity on HEK293 cells, eFluor780 fixable viability dye, flow cytometry; format: cell-based; details: increasing concentrations, 24 hours
# Procedure: (§1) Before IAA was used as an expression inducer for the transduced cell lines, it was assessed for any cytotoxic effects on CHO-K1 and HEK293 cells. Cell viability in both HEK293 and CHO-K1 cells was measured by flow cytometry 24 hours post addition of IAA over the concentration range indicated.
# (§2) HEK293 and CHO-K1 cells were treated with the indicated concentrations of IAA for 24 hours before being stained with eFluor780 fixable viability dye and analysed by flow cytometry.
# CHO-K1 cells = assay: Cytotoxicity on CHO-K1 cells, eFluor780 fixable viability dye, flow cytometry; format: cell-based; details: increasing concentrations, 24 hours
# Procedure: as §1, §2
# CD4+ and CD8+ T cells = assay: Proliferation and IFNγ production of PBMC T cells stimulated with CD3/CD28 Dynabeads; format: cell-based, human; details: PBMCs from two donors, concentration series, 96 hrs; for IFNγ production: ELISA; for proliferation of CD4+ T cells / proliferation of CD8+ T cells: proliferation dye
# Excerpt: One of the main considerations for application of the CIP system in immunology assays using primary human immune cells, is the effect that the small molecules (e,g. IAA) may have on cell viability and normal function. For example, one of the main limitations of one of the rapamycin-CIP systems is the high immunoregulatory effect of rapamycin on immune cells that limits its applicability in immunology assays. The inventors assessed the effect of IAA in the function of immune cells. PBMCs from two donors were stimulated with Human T-Activator CD3/CD28 targeting Dynabeads to stimulate T cell activation and proliferation, in the presence of a increasing concentration series of IAA. T cell proliferation and IFNγ production was analysed 96 hrs post stimulation to determine any negative effects on T cells. The concentration series of IAA was selected to reflect the concentration expected to be used in assays. […] Proliferation of CD4+ (A) and CD8+ (B) T cells was assessed by flow cytometry using a proliferation dye. The results are shown in FIG. 3, IFNγ production was assessed by ELISA (panel C), n=3, graphs report […]+SD.
# For example one of the main limitation of one of the rapamycin-CIP system is the high immunoregulatory effect of rapamycin on immune cells that limits its applicability in immunology assays.
# Peripheral Blood Mononuclear Cells (PBMCs) from two donors were labelled with eBioscience™ Cell Proliferation Dye eFluor™ 670 (ThermoFisher #65-0840-90). […] The cells were incubated for 96 hrs in a humidified incubator at 37° C./6% CO2 at which point proliferation of CD4+ and CD8+ T cells was assessed by flow cytometry. In parallel, supernatants were collected and the levels of IFNγ was analysed by ELISA (Human IFN-gamma DuoSet ELISA, R&D systems #DY285B).
# IAA CIP system [1] = assay: EGFP reporter expression in HEK293 cells with IAA activator cassette and i-Scel EGFP reporter; format: cell-based; details: 24 hours
# Excerpt: (§3) The levels of expression correlate with the number of i-Scel sites, with negligible induction observed at 1× i-Scel and the highest induction over background observed with the 10× i-Scel sites reporter. […] However, the inventors predict, that the inclusion of higher numbers of i-Scel binding sites in the reporter/TAOI cassette, would result in higher levels of induction of the reporter/TAOI.
# (§4) Therefore, the 5× and 10× i-Scel binding site pools for HEK293 and CHO-K1 cells were single cell dilution cloned, and colonies picked from each cell pool and then analysed for induction of expression following IAA treatment. […] The HEK293 and CHO-K1 cells containing the IAA activator cassette and the 10× and 5× i-Scel reporter constructs were seeded overnight in 96 well plates. IAA was added at the indicated concentration and the cells were incubated for a further 24 hours. EGFP expression was detected by flow cytometry analysis.
# (§5) The HEK293 and CHO-K1 cells containing the IAA activator cassette and the 10× i-Scel reporter construct were seeded overnight in 96 well plates. IAA was added at the indicated concentrations and the cells were incubated for a further 24 hours. EGFP expression was detected by flow cytometry analysis.
# (§6) HEK293 and CHO-K1 cells containing the IAA activator cassette and the EGFP reporter constructs were seeded in 6 well plates. Following overnight incubation, the media was replaced with fresh media containing the indicated concentrations of IAA and the cells incubated for a further 24 hours. EGFP expression was detected using a NovoCyte flow cytometer (ACEA).
# IAA CIP system [2] = assay: EGFP reporter expression in CHO-K1 cells with IAA activator cassette and i-Scel EGFP reporter; format: cell-based; details: 24 hours
# Excerpt: as §3, §4, §5, §6
# IAA CIP system [3] = assay: CD19 expression in CHO-K1 IAA activator 10× i-Scel CD19 reporter cells; format: cell-based
# Excerpt: To test the system in a therapeutically relevant target, a construct expressing CD19 under the control of 10× i-Scel binding sites was introduced into the IAA activator cassette containing CHO-K1 cells and clones isolated. As the purpose of the system is to provide titratable expression of a given receptor (usually a tumour associated antigen) within a biologically relevant range, the CD19 expression was quantified using a Quantibrite bead fluorescence quantification kit which contains multiple bead populations each conjugated with set numbers of fluorophore molecules (PE in this case) per bead. Assuming the fluorophore conjugation to the detection antibody is at a 1:1 ratio (which was confirmed by the manufacture) and antibody binding to the receptor of interest (CD19) occurs at a 1:1 ratio, the number of CD19 receptors per cell can be calculated. By means of comparison, the CD19 expression level of the CD19 positive cells found in peripheral blood mononuclear cells (PBMCs), e.g. B cells, and Ramos cells were calculated in the same experiment.
# (§7) Following this incubation, the cells were analysed for CD19 expression by flow cytometry.
# CHO-K1 cells containing the IAA activator cassette and a 10× i-Scel CD19 reporter construct were seeded overnight in 96 well plates. […] CD19 expression was assess by flow cytometry and quantified for receptor number per cell. […]
# ABA CIP system [4] = assay: tagBFP and CD19 reporter expression in CHO-K1 ABA activator cells; format: cell-based
# Procedure: CD19 expression was detected by flow cytometry analysis and the number of CD19 receptors per cell was quantified using a Quantibrite PE bead fluorescence quantification kit (BD Biosciences). The CD19 receptors per cell for Ramos, Raji and B cells isolated from PBMCs are shown by way of comparison.
# as §7
# CD19 expression was detected by anti-CD19 staining (Biolegend #302254) and flow cytometry analysis. The number of CD19 receptors per cell was quantified using a Quantibrite PE bead fluorescence quantification kit (BD Biosciences #340495).
# ABA CIP system [5] = assay: ABA-inducible CD22 expression in CHO-K1 cells containing both IAA and ABA CIP systems; format: cell-based; details: CHO-K1 IAA CD19 / ABA CD22 cells, IAA concentration series
# Procedure: (§8) CD22 and CD19 expression was measured by flow cytometry and mean fluorescence intensity corresponding to CD22 and CD19 expression was plotted.
# CD19 = target: T1, CD19 (Homo sapiens, UniProt P15391); assay: T cell engager assay, Jurkat NFAT luciferase reporter cells with CHO-K1 IAA or ABA activator CD19 reporter cells; format: cell-based
# T1 construct: expressed in transfected cells
# T1 sequence (P15391 20-556): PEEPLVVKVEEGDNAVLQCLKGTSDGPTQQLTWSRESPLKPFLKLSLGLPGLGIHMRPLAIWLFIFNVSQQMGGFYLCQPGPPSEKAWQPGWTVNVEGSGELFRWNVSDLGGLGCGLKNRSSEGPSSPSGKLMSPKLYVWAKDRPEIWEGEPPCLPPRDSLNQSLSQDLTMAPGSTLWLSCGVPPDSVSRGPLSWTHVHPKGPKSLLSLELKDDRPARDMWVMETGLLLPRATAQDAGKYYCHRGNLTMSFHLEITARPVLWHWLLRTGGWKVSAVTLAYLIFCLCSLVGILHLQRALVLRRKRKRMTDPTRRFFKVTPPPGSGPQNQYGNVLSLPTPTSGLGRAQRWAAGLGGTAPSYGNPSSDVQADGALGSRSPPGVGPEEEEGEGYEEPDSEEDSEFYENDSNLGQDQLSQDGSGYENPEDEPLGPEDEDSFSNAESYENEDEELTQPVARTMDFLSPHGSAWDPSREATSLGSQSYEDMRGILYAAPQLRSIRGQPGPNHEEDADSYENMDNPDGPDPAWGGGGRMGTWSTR
# Procedure: This represents a typical assay set up for measuring the effect of a bispecific against cells expressing its target antigen.
# NFAT activation was determined by luminescence after 24 hours (48 Hours from assay start) and plotted against CD19 expression quantified by staining with PE anti-CD19 and plotted on a curve generated using Quantibrite PE receptor quantification kit. n=3, graphs report mean±SD.
# ABA CIP system [6] = assay: tagBFP and CD19 reporter expression in HEK293 ABA activator cells; format: cell-based; details: 1000 μM ABA, 24 hours
# IAA CIP system [7] = assay: IAA-inducible CD19 expression in CHO-K1 cells containing both IAA and ABA CIP systems; format: cell-based; details: CHO-K1 IAA CD19 / ABA CD22 cells, ABA concentration series
# Procedure: as §8
# [8] = CHO-K1 ABA activator cells, 1000 μM ABA, 24 hours
molecule,measurement,setting,value
"O=C(O)Cc1c[nH]c2ccccc12 [IAA, indole-3-acetic acid]",cell viability (percentage of cells which do not take up the dye),HEK293 cells,no decrease in cell viability was observed
same,cell viability (percentage of cells which do not take up the dye),CHO-K1 cells,no decrease in cell viability was observed
same,IFNγ production,CD4+ and CD8+ T cells,little or no effect
same,proliferation of CD4+ T cells,CD4+ and CD8+ T cells,little or no effect
same,proliferation of CD8+ T cells,CD4+ and CD8+ T cells,little or no effect
same,dose dependence of EGFP expression,IAA CIP system [1]; HEK293 10× i-Scel EGFP clone,dose-dependent induction of EGFP expression
same,induction of EGFP expression,"IAA CIP system [1]; HEK293 stable pools, 1×, 5×, 10× i-Scel sites",induction of expression of EGFP can clearly be seen
same,additional induction of EGFP at 1000 μM compared to 500 μM,IAA CIP system [1]; HEK293 stable pools,no evidence of additional induction
same,dose dependence of EGFP expression,IAA CIP system [2]; CHO-K1 10× i-Scel EGFP clone,dose-dependent induction of EGFP expression
same,induction of EGFP expression,"IAA CIP system [2]; CHO-K1 stable pools, 1×, 5×, 10× i-Scel sites",induction of expression of EGFP can clearly be seen
same,additional induction of EGFP at 1000 μM compared to 500 μM,IAA CIP system [2]; CHO-K1 stable pools,no evidence of additional induction
same,dose dependence of CD19 expression (receptors per cell),"IAA CIP system [3]; CHO-K1 IAA activator 10× i-Scel CD19 clone, IAA concentration range, 72 hours",a dose dependent range of CD19 expression has been achieved
same,CD19 expression from the ABA CIP system (cross-talk),"ABA CIP system [4]; CHO-K1 ABA activator CD19 reporter cells, 1000 μM IAA, 24 hours",does not induce expression
same,CD22 expression from the ABA system upon IAA (cross-talk in a single cell line),ABA CIP system [5],does not induce expression; also recorded: without IAA inducing ABA-activated CD22 expression
Blincyto: CD19×CD3 targeting bispecific T cell engager,NFAT luciferase signal against number of CD19 receptors,"CD19; Blincyto 10 ng/mL and 25 ng/mL, luminescence after 24 hours",concurrent increase in luciferase signal
same,NFAT luciferase signal at the higher concentration compared to the lower,CD19; Blincyto 25 ng/mL versus 10 ng/mL,higher but remains IAA and ABA dose dependent
S-(+)-abscisic acid [ABA],IFNγ production,CD4+ and CD8+ T cells,minimal effects
same,proliferation of CD4+ T cells,CD4+ and CD8+ T cells,minimal effects
same,proliferation of CD8+ T cells,CD4+ and CD8+ T cells,minimal effects
same,CD19 expression from the IAA system (cross-talk),"IAA CIP system [3]; CHO-K1 IAA activator CD19 reporter cells, 1000 μM ABA, 24 hours",does not induce expression
same,CD19 expression,ABA CIP system [6],expression of both tagBFP and CD19 was obtained
same,tagBFP expression,ABA CIP system [6],expression of both tagBFP and CD19 was obtained
same,dose dependence of CD19 expression (receptors per cell),"ABA CIP system [4]; CHO-K1 ABA activator 9×Gal4 UAS CD19 clone, ABA concentration range, 48 hours",dose dependent induction of CD19 expression
same,CD19 expression,ABA CIP system [4]; [8],expression of both tagBFP and CD19 was obtained
same,tagBFP expression,ABA CIP system [4]; [8],expression of both tagBFP and CD19 was obtained
same,CD19 expression from the IAA CIP system upon ABA (cross-talk in a single cell line),IAA CIP system [7],does not induce expression; also recorded: without ABA inducing IAA-activated CD 19 expression
